The results in this text go back to US6589950B1, “Purine derivatives inhibitors of tyrosine protein kinase SYK” (Novartis AG, priority 1999, dated 2003).

Counter-ions that a name gives are not always drawn.

For the first series, the target named is syk kinase (Homo sapiens, UniProt P43405). Put plainly: syk kinase peptide phosphorylation scintillation proximity assay (SPA). It is filed as biochemical. Particulars: biotin-EDPDYEWPSA substrate, 33P-ATP, SPA beads, room temperature 30 minutes; read-out: IC50 (concentration at which 50% inhibition of syk kinase phosphorylation occurs). The text has this:
Compounds of formula I in free or salt form are useful as pharmaceuticals. Accordingly the invention also provides a compound of formula I in free or pharmaceutically acceptable salt form for use as a pharmaceutical. The compounds of formula I in free or pharmaceutically acceptable salt form, hereinafter referred to alternatively as “agents of the invention”, inhibit the activity of the tyrosine protein kinase syk, which is an activator of pro-inflammatory cells driving an allergic response.
In this assay the effect of an agent of the invention on the phosphorylation of a peptide by syk kinase is determined. The phosphate is transferred from the terminal phosphate of adenosine triphosphate (ATP) to the biotin-modified peptide biotin-EDPDYEWPSA (available from Genosys) which is a known specific substrate for syk. When ^33P-phosphorylated peptide binds to streptavidin-polyvinyltoluene (PVT) Scintillation Proximity Assay (SPA) beads (available from Amersham), the emitted β-particles excite the fluorophore in the beads and produce light.
To the wells of an Optiplate (Canberra Packard) are added (i) the compound under test in DMSO/distilled water (10 μl), (ii) 20 μl of a composition formed by mixing 1 mM biotin-EDPDYEWPSA (5.5 μl), 300 μM ATP (18.3 μl), and ^33P-ATP in sufficient amount to add 0.1 μCi ^33P-ATP per well (1.1 μl on the day of production) and making up the volume to 2.2 ml with a buffer (Buffer A) prepared by dissolving tris-base (0.36 g) in distilled water (80 ml), adjusting the pH to 7.5 with 1M hydrochloric acid, adding 1M aqueous MgCl2 (1.5 ml), 50 mM aqueous sodium orthovanadate (30 μl) and 1M aqueous dithiothrietol (150 μl), and making the volume up to 120 ml with distilled water, (iii) 0.5% w/v syk kinase in Buffer A (20 μl). The plate is incubated at room temperature for 30 minutes with shaking, the reaction is then terminated by addition to all wells of 150 μl of a mixture prepared by reconstituting 500 mg Streptavidin-PVT SPA beads in 373 ml of Tris-buffered saline containing 673.6 g cesium chloride, 20 ml 0.5M EDTA and 27.5 mg ATP (disodium salt) per litre. The plate is again incubated at room temperature for 30 minutes with shaking, then sealed using Top Seal-S (Canberra Packard) according to the manufacturer's instructions and left to stand at room temperature for 1 hour. The resulting scintillations are counted using a Packard TopCount, each well being counted for 1 minute.
The procedure is repeated for different concentrations of test compound selected to cover the range of 0% to 100% inhibition and the concentration at which 50% inhibition of syk kinase phosphorylation occurs (IC50) for each compound is determined from concentration-inhibition curves in a conventional manner.
With `CC(C)(C)OC(=O)Nc1ccc(Nc2nc(NC3CC3)c3nc[nH]c3n2)cc1` [Example 3], the IC50 was 5 nM.

As to `c1nc2c(NC3CC3)nc(Nc3ccc(N4CCOCC4)cc3)nc2[nH]1` [Example 5], the IC50 was found to be 9 nM.

Turning to `CC(=O)N(C)c1ccc(Nc2nc(NC3CCC3)c3nc[nH]c3n2)cc1` [Example 6], the IC50 is 10 nM.

For the compound `CN1CCN(c2ccc(Nc3nc(NC4CC4)c4nc[nH]c4n3)cc2)CC1` [Example 102], the IC50 was 5 nM.

On to `CC(=O)N1CCN(c2ccc(Nc3nc(NC4CC4)c4nc[nH]c4n3)cc2)CC1` [Example 103], for which the IC50 came to 2 nM.

With `CC(=O)N1CCN(c2ccc(Nc3nc(NC4CCC4)c4nc[nH]c4n3)cc2)CC1` [Example 104], the IC50 was 3.6 nM.

Turning to `CC(=O)N(C)c1ccc(Nc2nc(NC(C)(C)C)c3nc[nH]c3n2)cc1` [Example 138], the IC50 was found to be 14 nM.

As to `CCN(C(C)=O)c1ccc(Nc2nc(NC(C)C)c3nc[nH]c3n2)cc1` [Example 170], the IC50 came out at 10 nM.

System in the next series: not given
Assay: not given
Conditions: not given
Consider `CC(=O)N(C)c1ccc(Nc2nc(NC3CCC3)c3nc[nH]c3n2)cc1` (as salt: HCl) [Example 6], for which the melting point is 314 to 318 °C.

With `c1nc2c(NC3CC3)nc(Nc3ccc(N4CCOCC4)cc3)nc2[nH]1` [Example 5], the melting point was 201.9 to 203.7 °C.

Take `c1ccc(Nc2nc(NC3CCC3)c3[nH]cnc3n2)cc1` [Example 121, 6-Cyclobutylamino-2-anilinopurine]: the melting point lay in the range of 312 to 314 °C.

On to `CC(=O)N(C)c1ccc(Nc2nc(NC(C)(C)C)c3nc[nH]c3n2)cc1` [Example 138], for which the melting point lay within 273 to 274 °C.
